PMC11923636, “Synthesis, Pharmacological Evaluation, and Molecular Modeling of Phthalimide Derivatives as Monoamine Oxidase and Cholinesterase Dual Inhibitors” (ACS Omega, 2025)
“And” between values parts separate entries of the source, which are not always exact repeats. Identical values can stand only once. Marks after values point to notes of the source that are not given here.

Legend:
human MAO-A = target: T1, human MAO-A (Homo sapiens, UniProt P21397); experiment: Human MAO isoform inhibition assay (fluorometric), MAO-A; assay type: biochemical; conditions: mean ± SEM, n = 3; read-out: IC50 (μM) ± SEM hMAO-A
T1 sequence (P21397 1-527): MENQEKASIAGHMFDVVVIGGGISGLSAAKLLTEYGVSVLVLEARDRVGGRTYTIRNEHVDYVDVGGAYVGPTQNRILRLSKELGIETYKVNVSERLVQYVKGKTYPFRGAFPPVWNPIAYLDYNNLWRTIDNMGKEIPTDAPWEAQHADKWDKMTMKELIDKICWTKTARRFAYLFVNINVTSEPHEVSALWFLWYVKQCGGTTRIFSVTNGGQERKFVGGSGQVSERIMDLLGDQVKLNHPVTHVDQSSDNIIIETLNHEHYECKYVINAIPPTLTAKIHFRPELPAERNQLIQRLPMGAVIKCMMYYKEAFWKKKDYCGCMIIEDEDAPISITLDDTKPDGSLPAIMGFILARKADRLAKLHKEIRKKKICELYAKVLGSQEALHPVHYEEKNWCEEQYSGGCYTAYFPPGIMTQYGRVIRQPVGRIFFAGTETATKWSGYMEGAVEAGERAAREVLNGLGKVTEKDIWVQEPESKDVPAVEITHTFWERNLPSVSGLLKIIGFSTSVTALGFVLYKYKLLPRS
Procedure: (§1) The human MAO isoform assay was also carried out using a fluorescence-based assay protocol according to the reported literature.
(§2) Inhibitory activity of the synthesized compounds against MAO isoforms, specifically human MAO-A and MAO-B, was determined by using benzylamine and tyramine substrates in the dark (protected from light) in a 96-well plate by an already reported fluorometric method.[31],[32]

human MAO-B = target: T2, human MAO-B (Homo sapiens, UniProt P27338); experiment: Human MAO isoform inhibition assay (fluorometric), MAO-B; assay type: biochemical; conditions: for IC50: mean ± SEM, n = 3, read-out: IC50 (μM) ± SEM hMAO-B; for SI (IC50 hMAO-A/IC50 hMAO-B): selectivity index
T2 sequence (P27338 1-520): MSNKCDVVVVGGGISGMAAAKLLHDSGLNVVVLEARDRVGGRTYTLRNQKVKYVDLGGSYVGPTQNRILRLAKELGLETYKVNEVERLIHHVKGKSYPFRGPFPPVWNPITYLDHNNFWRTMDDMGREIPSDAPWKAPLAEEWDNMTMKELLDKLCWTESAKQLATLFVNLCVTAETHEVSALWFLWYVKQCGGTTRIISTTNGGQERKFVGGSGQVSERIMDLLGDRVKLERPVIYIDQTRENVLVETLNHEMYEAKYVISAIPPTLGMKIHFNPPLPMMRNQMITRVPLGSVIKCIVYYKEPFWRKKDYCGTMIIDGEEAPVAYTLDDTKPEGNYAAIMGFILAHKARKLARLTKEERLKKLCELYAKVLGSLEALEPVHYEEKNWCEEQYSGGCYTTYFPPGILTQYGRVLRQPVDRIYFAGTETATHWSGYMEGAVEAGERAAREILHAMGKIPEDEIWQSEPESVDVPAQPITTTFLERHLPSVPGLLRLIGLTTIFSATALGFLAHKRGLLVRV
Procedure: as §1, §2

[1] = target: Electrophorus electricus AChE (Electrophorus electricus, UniProt O42275); experiment: biochemical; assay type: biochemical; conditions: for IC50: mean ± SEM, n = 3, read-out: IC50 (μM) ± SEM eeAChE; for SI = IC50 of BChE/IC50 of AChE: selectivity index
Procedure: (§3) The synthesized compounds were evaluated for their inhibition potential against cholinesterases (Electrophorus electricus AChE and equine serum lyophilized BChE).
(§4) The cholinesterase in vitro bioassay for the synthesized compounds was performed using already reported protocols.[29],[30] Ellman’s assay method was used to study the inhibition of Electrophorus electricus AChE and Equine Serum lyophilized BChE. Stock solutions of synthesized compounds were prepared in potassium phosphate buffer (pH 8.0). A sufficient amount of 5,5-dithio-bis-2-nitrobenzoic acid (DTNB, Ellman’s reagent), a stock solution of synthesized compounds, and 0.03 U/ml of the enzyme (AChE or BChE) were added to a 96-well plate and incubated at 30 °C for 10 min. Subsequently, 1 mM ATCI or BTCI was added, and the reaction mixture was incubated for 15 min. […] Sample concentration was plotted against inhibitory activity to obtain IC50 values.

[2] = target: T3, equine serum lyophilized BChE (Equus caballus, UniProt P81908); experiment: biochemical; conditions: mean ± SEM, n = 3; read-out: IC50 (μM) ± SEM eqBChE
T3 construct: Equine Serum lyophilized BChE; from tissue; host or cells: equine serum
Procedure: as §3, §4

mice brain MAO-B = target: T4, mice brain MAO-B (Mus musculus, UniProt Q8BW75); experiment: Ex vivo MAO-B inhibition reversibility time course; assay type: in vivo, ICR mice; conditions: single ip dose
T4 construct: from tissue; host or cells: ICR mouse brain homogenate pellet
T4 sequence (Q8BW75 1-520): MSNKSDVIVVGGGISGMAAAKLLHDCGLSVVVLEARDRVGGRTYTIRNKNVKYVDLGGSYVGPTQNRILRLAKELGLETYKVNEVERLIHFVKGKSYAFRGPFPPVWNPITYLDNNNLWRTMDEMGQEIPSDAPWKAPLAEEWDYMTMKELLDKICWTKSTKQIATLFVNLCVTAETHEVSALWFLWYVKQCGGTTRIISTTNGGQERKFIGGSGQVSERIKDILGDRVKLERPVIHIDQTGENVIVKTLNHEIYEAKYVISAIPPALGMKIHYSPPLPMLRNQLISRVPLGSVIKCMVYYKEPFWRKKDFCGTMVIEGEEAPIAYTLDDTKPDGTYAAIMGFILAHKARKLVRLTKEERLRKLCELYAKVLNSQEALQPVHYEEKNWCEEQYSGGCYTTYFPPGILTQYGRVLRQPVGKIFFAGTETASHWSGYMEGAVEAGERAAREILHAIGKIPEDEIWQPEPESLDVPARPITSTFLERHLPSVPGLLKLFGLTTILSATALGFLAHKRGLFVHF
Procedure: After the experiments, the animals were euthanized following Animal Euthanasia (AVMA Guidelines) guidelines to ensure humane treatment. Five groups of ICR mice were administered test samples by intraperitoneal injection, and the intact brains were excised and were then frozen for almost 1 h (−20 °C). Brain tissue ([…]) was suspended in sucrose (0.3 M) using a homogenizer (Ultra-Turrax T8; at 60 Hz for almost 70 s) and then subjected to centrifugation for 10 min at 1500 rpm (4 °C). 200 μL of supernatant was collected and centrifuged for 20 min at 15,000 rpm and 4 °C. Subsequently, the formed pellet was resuspended in KHPO4 solution (pH 7.2, 600 μL) and then subjected to 20 min centrifugation at 15,000 rpm and 4 °C. This process was repeated three times. Enzyme activity was determined using an Assay Kit (monoamine oxidase). […] The mice were then sacrificed at intervals ranging from 0.5 to 48 h.[34]

in vitro = conditions: for Papp at 20 h: PAMPA, pH 7.4; for prediction of CNS penetration: class from PAMPA-BBB Pe
Procedure: A fundamental requirement for the effectiveness of anti-AD drugs is their capability to traverse the BBB (blood–brain barrier). […]
Briefly, synthesized compounds were first dissolved in DMSO (10 mM) that was further diluted by the addition of phosphate buffer ([…]) having a pH of 7.4. PBL dissolved in dodecane was used for coating the membranes of the donor plates. Then, the test compound (0.2 mL) was added to the plate, followed by PBS (0.2 mL; pH = 7.4) to the acceptor plate, which was further placed under the donor plate in order to form a “sandwich”. […] A UV plate reader was employed for the measurements of the drug concentration in donor, acceptor, and reference wells. The permeability (Pe) of the compounds was measured by using the following formula. [drawing 2]

[3] = system: SH-SY5Y neuroblastoma cells; assay type: cell-based; conditions: MTT; for cytotoxicity on SH-SY5Y cells: 10, 20, 30, and 50 μM; for neurotoxicity on SH-SY5Y cells: higher concentrations (100 μM)
Procedure: To determine the biological safety of the synthesized compounds, we performed a cytotoxicity study using a human SH-SY5Y neuroblastoma cell line.
SH-SY5Y cells were cultured in 96-well plates (1 × 10^5 cells/well) in a medium containing fetal bovine serum (FBS), penicillin (100 U/ml), and streptomycin ([…]) at 37 °C and 5% CO2. […] Subsequently, synthesized compounds were added to cells, followed by the addition of 20 μL of MTT reagent (10 mg/mL) at the specified time. Plates were then incubated at 37 °C and 5% CO2, and purple color precipitate formation was observed by a microscope. Lastly, DMSO ([…]) was added to solubilize precipitates, and the plates were read at 570 nm to determine the cell viability. Results are expressed as percentage growth of cells, in which their viability is compared to control cells in the presence or absence of synthesized compounds and a standard. The following formula was utilized for the measurement of the % cell viability. [drawing 1]

Electrophorus electricus AChE, sequence (O42275 24-633): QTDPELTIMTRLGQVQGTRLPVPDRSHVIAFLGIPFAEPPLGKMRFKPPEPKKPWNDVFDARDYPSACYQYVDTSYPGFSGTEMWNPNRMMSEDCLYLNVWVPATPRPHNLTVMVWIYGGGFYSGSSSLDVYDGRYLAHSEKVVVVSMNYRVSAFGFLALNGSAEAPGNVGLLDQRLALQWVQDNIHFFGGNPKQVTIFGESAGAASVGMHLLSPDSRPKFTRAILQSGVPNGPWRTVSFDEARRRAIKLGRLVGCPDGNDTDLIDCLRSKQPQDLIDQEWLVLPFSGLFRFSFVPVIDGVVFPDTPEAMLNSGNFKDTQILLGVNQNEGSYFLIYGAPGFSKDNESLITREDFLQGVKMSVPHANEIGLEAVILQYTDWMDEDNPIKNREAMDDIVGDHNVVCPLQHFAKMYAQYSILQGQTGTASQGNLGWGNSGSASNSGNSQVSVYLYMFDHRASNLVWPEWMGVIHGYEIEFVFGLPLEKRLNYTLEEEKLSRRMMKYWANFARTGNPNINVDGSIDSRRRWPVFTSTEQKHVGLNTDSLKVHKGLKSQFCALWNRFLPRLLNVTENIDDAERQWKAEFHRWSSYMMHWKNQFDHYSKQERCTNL
T3 sequence (P81908 whole entry): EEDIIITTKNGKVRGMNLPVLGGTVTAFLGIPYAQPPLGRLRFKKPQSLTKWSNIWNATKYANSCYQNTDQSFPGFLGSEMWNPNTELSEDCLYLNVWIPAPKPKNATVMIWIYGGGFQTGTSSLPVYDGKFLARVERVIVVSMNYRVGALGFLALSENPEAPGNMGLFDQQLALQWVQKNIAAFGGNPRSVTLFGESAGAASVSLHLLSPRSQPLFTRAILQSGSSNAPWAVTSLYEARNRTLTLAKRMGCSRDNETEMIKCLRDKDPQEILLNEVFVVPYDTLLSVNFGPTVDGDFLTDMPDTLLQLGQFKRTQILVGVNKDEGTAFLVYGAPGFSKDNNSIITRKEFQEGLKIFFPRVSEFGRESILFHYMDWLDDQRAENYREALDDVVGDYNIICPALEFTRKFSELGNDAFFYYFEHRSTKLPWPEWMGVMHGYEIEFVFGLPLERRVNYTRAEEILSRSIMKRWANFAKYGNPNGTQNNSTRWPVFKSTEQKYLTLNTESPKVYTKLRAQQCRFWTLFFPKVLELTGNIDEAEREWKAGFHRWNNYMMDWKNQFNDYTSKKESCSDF

| SMILES | IC50 (human MAO-A) | IC50 (human MAO-B) | SI (IC50 hMAO-A/IC50 hMAO-B) (human MAO-B) | IC50 [1] | SI = IC50 of BChE/IC50 of AChE [1] | IC50 [2] | activity of MAO-B recovered (mice brain MAO-B; after 5 h) | activity of MAO-B recovered (mice brain MAO-B; after 24 h) | Papp at 20 h (in vitro) | prediction of CNS penetration (in vitro) | cytotoxicity on SH-SY5Y cells [3] | neurotoxicity on SH-SY5Y cells [3] |
| --- | --- | --- | --- | --- | --- | --- | --- | --- | --- | --- | --- | --- |
| Cc1ccc(-c2ccc(CN3C(=O)c4ccccc4C3=O)cc2)cc1 [3a] | 19.3 ± 1.28 µM | 1.04 ± 0.03 µM | 18 | 3.16 ± 0.09 µM | 15 | 49.1 ± 1.36 µM |  |  |  |  |  |  |
| O=C1c2ccccc2C(=O)N1Cc1ccc(-c2ccc([N+](=O)[O-])cc2)cc1 [3c] | 19.4 ± 1.21 µM | 0.24 ± 0.01 µM | 80 | 0.94 ± 0.12 µM | 52 | 49.1 ± 1.39 µM |  |  |  |  |  |  |
| N#Cc1ccc(-c2ccc(CN3C(=O)c4ccccc4C3=O)cc2)cc1 [3d] | 28.8 ± 1.44 µM | 0.64 ± 0.03 µM | 45 | 9.21 ± 0.14 µM | 4 | 33.5 ± 1.09 µM |  |  |  |  |  |  |
| O=C1c2ccccc2C(=O)N1Cc1ccc(-c2ccc(C(F)(F)F)cc2)cc1 [3e] | 16.5 ± 0.66 µM | 0.11 ± 0.01 µM | 150 | 0.24 ± 0.01 µM | 26 | 6.29 ± 0.17 µM | 50% | ~95% | 18.7 ± 1.12 ×10⁻⁶ cm/s | CNS+ ^b (“CNS+” (prediction of high BBB permeation); Pe (10^–6 cm/s) > 4.39) | No cytotoxicity | negligible neurotoxicity |
| O=C1c2ccccc2C(=O)N1Cc1ccc(-c2cccc(C(F)(F)F)c2)cc1 [3f] | 11.3 ± 0.2 µM | 0.09 µM and 0.091 µM | 124 | 4.48 ± 0.11 µM | 4 | 17 ± 1.04 µM |  | ~80% | 18.3 ± 1.27 ×10⁻⁶ cm/s | CNS+ (“CNS+” (prediction of high BBB permeation); Pe (10^–6 cm/s) > 4.39) | No cytotoxicity | negligible neurotoxicity |
| N#CCc1ccc(-c2ccc(CN3C(=O)c4ccccc4C3=O)cc2)cc1 [3g] | 5.44 ± 0.16 µM | 0.78 ± 0.04 µM | 7 | 13.43 ± 0.08 µM | 7 | 99.1 ± 1.21 µM |  |  |  |  |  |  |
| Cc1cc(C)cc(-c2ccc(CN3C(=O)c4ccccc4C3=O)cc2)c1 [3h] | 75.1 ± 1.25 µM | 0.64 ± 0.02 µM | 117 | 0.73 ± 0.04 µM | 40 | 29.6 ± 1.16 µM |  |  |  |  |  |  |
| Cc1cc(C)c(-c2ccc(CN3C(=O)c4ccccc4C3=O)cc2)c(C)c1 [3i] | 50.9 ± 1.42 µM | 0.71 ± 0.04 µM | 71 | 0.88 ± 0.05 µM | 56 | 49.2 ± 1.11 µM |  |  |  |  |  |  |
